Among the test systems are COLO 205 colon; OVCAR-4 ovarian; MDA-MB-435; K-562 leukemia; 786-0 renal; HCT-116 colon; RPMI-8226 leukemia; IGROV1 ovarian; SNB-75 CNS; HL-60(TB) leukemia.
Assay in all cases: NCI tumour cell line growth inhibition, 48 h

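Assay format: 96-well plates, 48-hour exposure. GI50 = concentration required for 50% inhibition of growth. TGI: concentration producing complete growth inhibition.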

`CN1CC[C@@H](NC(=O)Nc2ccc(C#N)cc2)C[C@@H]1c1nc2ccccc2[nH]1`: the GI50 with COLO 205 colon was > 80600 nM; in the assay on OVCAR-4 ovarian, 100 µM; with MDA-MB-435 it was > 100000 nM; in the assay with K-562 leukemia, > 100000 nM; with 786-0 renal, > 100000 nM; in the assay on HCT-116 colon, > 87100 nM. Besides, the GI50 in the assay on RPMI-8226 leukemia was > 100000 nM; with IGROV1 ovarian, > 100000 nM; in the assay on SNB-75 CNS, > 73200 nM; in the assay on HL-60(TB) leukemia it was > 100000 nM. Also, the TGI with COLO 205 colon, with OVCAR-4 ovarian, in the assay with MDA-MB-435, in the assay on K-562 leukemia, in the assay with 786-0 renal and with HCT-116 colon was > 100 µM each time. Moreover, the TGI in the assay on RPMI-8226 leukemia, in the assay with IGROV1 ovarian, with SNB-75 CNS and with HL-60(TB) leukemia was > 100 µM in each case.

In the case of `Nc1n[nH]c2cc(F)c([C@@H]3Nc4ccc5[nH]ncc5c4[C@H]4C5CCC(C5)[C@@H]34)cc12` (stereo not given in full), the GI50 is 162 nM in the assay with COLO 205 colon; 0.327 µM with OVCAR-4 ovarian; 85.4 nM in the assay with MDA-MB-435; 103 nM in the assay with K-562 leukemia; 250 nM in the assay with 786-0 renal; 174 nM in the assay on HCT-116 colon. Also, the GI50 in the assay with RPMI-8226 leukemia is 173 nM; with IGROV1 ovarian, 218 nM; in the assay on SNB-75 CNS, 98.8 nM; with HL-60(TB) leukemia, 149 nM. Besides, the TGI in the assay on COLO 205 colon is 0.527 µM; in the assay with OVCAR-4 ovarian it was > 50 µM; in the assay on MDA-MB-435, 0.306 µM; in the assay with K-562 leukemia it was > 50 µM; in the assay on 786-0 renal it was 12 µM; in the assay with HCT-116 colon, 1.24 µM. Besides, the TGI in the assay with RPMI-8226 leukemia was 1.82 µM; with IGROV1 ovarian it was 15.6 µM; with SNB-75 CNS it was 1.12 µM; in the assay on HL-60(TB) leukemia, 1.67 µM.

For the molecule `CCN1C(=O)N(c2ccccc2)C2NC(=S)N(/N=C/C=C/c3ccccc3OC)C21` (stereo not given), the GI50 was 210 nM in the assay with COLO 205 colon; 0.263 µM in the assay with OVCAR-4 ovarian; 35.6 nM in the assay on MDA-MB-435; 66.2 nM in the assay on K-562 leukemia; 182 nM with 786-0 renal; 105 nM in the assay with HCT-116 colon. Further, the GI50 in the assay on RPMI-8226 leukemia was 126 nM; with IGROV1 ovarian it was 136 nM; with SNB-75 CNS, 38.3 nM; with HL-60(TB) leukemia it was 75.6 nM. Moreover, the TGI in the assay on COLO 205 colon was 0.487 µM; with OVCAR-4 ovarian, > 67 µM; in the assay on MDA-MB-435, 0.155 µM; in the assay with K-562 leukemia, > 100 µM; in the assay with 786-0 renal it was > 68.8 µM; with HCT-116 colon it was > 32.7 µM. In addition, the TGI in the assay with RPMI-8226 leukemia is 14.2 µM; in the assay with IGROV1 ovarian, 10.8 µM; in the assay on SNB-75 CNS, > 41.4 µM; in the assay on HL-60(TB) leukemia it was 0.181 µM.

Regarding `O=C(O)c1ccc2c(c1C(=O)O)C(=O)OC2(c1ccc(O)cc1)c1ccc(O)cc1`, the TGI in the assay on COLO 205 colon, in the assay on OVCAR-4 ovarian, in the assay with MDA-MB-435, with K-562 leukemia, in the assay on 786-0 renal and in the assay on HCT-116 colon was > 100 µM in each case. In addition, the TGI in the assay on RPMI-8226 leukemia, in the assay with IGROV1 ovarian, with SNB-75 CNS and with HL-60(TB) leukemia was > 100 µM throughout.

On to `N#Cc1c[nH]n2c(N=Nc3ccc(Cl)cc3)c(O)nc12`, for which the GI50 with COLO 205 colon is 29000 nM; in the assay on OVCAR-4 ovarian it was 57.3 µM; in the assay with MDA-MB-435 it was 44300 nM; in the assay with K-562 leukemia, 26400 nM; in the assay on 786-0 renal, 51600 nM; with HCT-116 colon it was 92800 nM. Besides, the GI50 with RPMI-8226 leukemia was 25700 nM; with IGROV1 ovarian, 50500 nM; in the assay with SNB-75 CNS, 40700 nM; in the assay on HL-60(TB) leukemia it was > 100000 nM. In addition, the TGI in the assay with COLO 205 colon, in the assay on OVCAR-4 ovarian, in the assay on MDA-MB-435, with K-562 leukemia, in the assay with 786-0 renal and in the assay with HCT-116 colon was > 100 µM throughout. Besides, the TGI in the assay with RPMI-8226 leukemia is 95.3 µM; in the assay with IGROV1 ovarian, > 100 µM; in the assay on SNB-75 CNS, > 100 µM; in the assay on HL-60(TB) leukemia, > 100 µM.

In the case of `CC(C)c1cc2c(cc1S(=O)(=O)O)[C@@]1(C)CCC[C@@](C)(C(=O)O)C1CC2` (stereo not given in full), the TGI in the assay with COLO 205 colon, in the assay with OVCAR-4 ovarian, with MDA-MB-435, in the assay with K-562 leukemia, in the assay on 786-0 renal and with HCT-116 colon was > 100 µM throughout. In addition, the TGI in the assay on RPMI-8226 leukemia, in the assay on IGROV1 ovarian, in the assay with SNB-75 CNS and in the assay on HL-60(TB) leukemia was > 100 µM throughout.

The record behind these values is PubChem BioAssay (NCI).
